How the values were obtained:
[1] = test system: polarized human bronchial epithelial cells; conditions: hypotonic EGTA solution; cited from earlier work
IB3 cells = test: AV2Luc / AV2/5Luc transduction and nuclear uptake in IB3 cells; format: cell-based, human; conditions: rAAV2-infected IB3 cells; 40 μM LLnL or 1 μM Dox; 24 hours
Experimental: LLnL and Z-LLL are two tripeptidyl aldehydes shown to inhibit calpains, cathepsins, cysteine proteases as well as the chymotrypsin-like protease activity of proteasomes (Wagner et al., 2002; Donkor, 2000; Sasaki et al., 1990). […] Both classes of proteasome inhibitors bind tightly to the proteasome complex. Dose response curves for these two proteasome-modulating agents were evaluated on IB3, A549, Hela, and primary fibroblasts. The responses were consistent for a number of cell lines and for three different promoters driving luciferase expression. For one set, CMV-driven luciferase constructs with an AAV2-based genome were employed that were packaged into AV2 or AV5 capsids. Cells were infected at various doses of AV2Luc and AV2/5Luc (MOIs 100 to 1000 particles/cell). At the time of infection, cells were treated with various concentrations of LLnL or Doxorubicin and gene expression was assayed at 24 hours post-infection. The effect of proteasome inhibitors on nuclear uptake of virus was evaluated using a previously-described protocol for fractionating viral DNA in the cytoplasm and nucleus (Xiao et al., 2002). Viral DNA content in the cytoplasmic and nuclear fractions was then evaluated by slot blot hybridization against a Luciferase DNA probe.

HeLa cells [2] = test: Luciferase rAAV transduction of HeLa cells with LLnL / doxorubicin; format: cell-based
Experimental: (§1) C. To determine whether combinations of agents that enhance rAAV transduction efficiency have synergistic or additive effects when used in combination, cells were contacted with the proteosome modulator, doxorubicin, and the proteosome inhibitor Z-LLL or LLnL. Different AAV vectors were tested, including splicing vectors and pseudotyped rAAV. Viral stocks utilized were as follows: Av2RSVluc, 5×10^8 particle/μl; Av2RSVlucCap5 (also referred to as Av2/5 CMVLuc), 2×10^9 particle/μl; Av2CMVluc, 1.3×10^9 particle/μl; and Av2CMVlucCap5, 1.1×10^9 particle/μl. Combinations of agents were compared to the agents used alone to determine the efficiency of transduction. LLnL was used at 40, 200 or 400 μM, Z-LLL at 4 μM and doxorubicin at 0.5 or 1 μM when employed alone. When a combination of LLnL and doxorubicin was used, LLnL was used at 4, 10, 20, 40, 200 or 400 μM and doxorubicin at 1 or 5 μM. The apical surface of polarized airway epithelia, HeLa cells or ferret fibroblast was contacted with the agents and rAAV (5×10^9 particles per well).

HeLa cells [3] = test: AAV2 FLAG-Luc transduction of HeLa cells (luciferase screen of agents); format: cell-based
Text: A. To screen for agents that enhance rAAV transduction, any number of cells can be used. A range of concentrations of the agent to be tested can be determined based on, for instance desirable profiles of the agent, desirable toxicity profiles of the agent and/or concentration of the agents employed in vivo. The usefulness of the cell type chosen for the screen can be confirmed by testing compounds, e.g., proteosome inhibitors described in Example 1 such as LLnL and ZLL which are known to increase rAAV transduction. For example, a AAV2 FLAG-Luc vector was employed to transduce HeLa, ferret fibroblasts, IB3 and Huh (liver) cells in the presence or absence of the proteosome inhibitor MG132. MG132 was confirmed to enhance AAV transduction in all cell types tested: HeLa cell transduction was enhanced about 500-fold at 80 μM, and 200-fold at 40 μM, MG132; ferret fibroblast cell transduction was enhanced about 200-fold at 20 μM, and 17-fold at 4 μM, MG132; IB3-1 cell transduction was enhanced about 30 to 70-fold at 20 to 80 μM MG132; and Huh-7 cell transduction was enhanced about 15-fold at 20 to 80 μM MG132. There was no difference in rAAV transduction efficiency in HeLa cells when either DMSO or ETOH was used as a vehicle for MG132. B. HeLa cells were selected to screen for additional agents that enhance rAAV transduction, although any cell strain or line; or primary cells, may be employed. […] The range of concentrations of the agents to be tested were selected based on solubility profiles, toxicity profiles and/or concentrations previously employed in vivo.
HeLa cells were infected for 2 hours with an MOI of 100 rAAV in the presence of agents, e.g., ritonavir (Norvir) (1, 10 and 100 μM), cyclosporin A (2.5, 25 and 250 μg/ml), epoxomicin (1, 10 and 50 μM), alcacinomycin A (5, 50 or 500 μM), chymostatin (1, 10 and 100 μM), bestatin (1, 10 and 100 μM), doxorubicin (adriamycin) (0.1, 1 and 10 μM), camptothecin (camptosar) (1, 10 and 100 μM), eicosapentanoic acid (1, 10 and 100 μM), tannic acid (2, 20, 200 and 2000 μM), simvastatin, prodrug (2, 20 and 200 μM), cisplatin (0.2, 2 and 20 μg/mL), and chloroquine (4, 40 and 400 μM). Forty-eight hours after infection, cells were harvested for analysis. rAAV transduction was measured by removing the media from the cell cultures, adding 100 μL reporter lysis buffer (RLB) and freezing. The supernatant was thawed and transferred to microfuge tubes, freeze thawed an additional 2 times, clarified by centrifugation for 10 minutes and then analyzed for reporter gene expression on the luminometer. Protein was determined by Bradford analysis and results were expressed as relative light units per mg protein (RLU/mg).
Based on results with doxorubicin, a small number of FDA approved anthracyclines were tested for their relative in vitro and in vivo activities on AAV transduction. HeLa cells were infected with 100 ppc AAV2FLAG-Luc for 2 hours in the presence of different anthracyclines, e.g., doxorubicin, daunarubicin (Cerubidine), epirubicin (Ellence™), and idarubicin (Idamycin®), and cells harvested 48 hours later. The anthracyclines were pharmaceutical grade, and prepared according to the manufacturer's instructions. Prior to use, the agents were diluted in sterile water to an equal mass, e.g., 0.6 μg/mL, 3 μg/mL and 6 μg/mL. For example, 3 μg/mL idamycin increased luciferase expression by over 5000-fold while doxorubin increased luciferase expression by 58-fold. Generally, the potency was as follows: idarubicin>daunarubicin>epirubicin>doxorubicin.

ferret fibroblast = test: rAAV transduction of ferret fibroblasts with LLnL / doxorubicin; format: cell-based
Experimental: as §1

A549 cells = test: AV2Luc / AV2/5Luc transduction of A549 cells with LLnL / doxorubicin; format: cell-based, human
[4] = test system: polarized human airway epithelia; test: Luciferase rAAV2 / rAAV5-capsid transduction of polarized human airway epithelia; format: cell-based

SMILES | increase of AAV transduction from the apical surface [1] | fraction of viral DNA in the nuclear compartment (IB3 cells) | concentration at which transduction is enhanced (HeLa cells [2]) | increase of luciferase expression (HeLa cells [3]; 3 μg/mL, 100 ppc AAV2FLAG-Luc 2 hours, harvested 48 hours) | outcome in cell line screening (HeLa cells [3]; HeLa screen) | concentration at which transduction is enhanced (ferret fibroblast; ferret fibroblast) | enhancement of transduction with lacZ splicing vectors (ferret fibroblast; ferret fibroblasts infected with lacZ splicing vectors) | concentration at which transduction is enhanced (A549 cells) | enhancement of transduction from the apical surface ([4]; LLnL 40 μM and/or Dox 5 μM at the time of infection) | concentration at which transduction is enhanced ([4]; polarized airway epithelial cells)
O=C(O)CN(CCOCCOCCN(CC(=O)O)CC(=O)O)CC(=O)O [EGTA] | 7 to 10 fold | – | – | – | – | – | – | – | – | –
COc1cccc2c1C(=O)c1c(O)c3c(c(O)c1C2=O)C[C@@](O)(C(=O)CO)C[C@@H]3O[C@H]1C[C@H](N)[C@H](O)[C@H](C)O1 [doxorubicin] | – | significantly increased the fraction of viral DNA in the nuclear compartment | 1 µM | 58 fold | tested positive | 1 µM | about 100 fold | 5 µM | 100 fold | 5 µM

From US7749491B2, “Compounds and methods to enhance rAAV transduction” (priority 2003, dated 2010)
